Measurements taken from patent publication US20250262140A1, “Compositions and Method of Use for Hair Straightening and Shaping” (Olaplex, Inc., priority 2020, published 2025).

Legend:
[1] = Peptide stability to shampoo washes, fluorescence of dye-labeled peptide on hair (Example 9); assay type: binding; details: Alexa Fluor 647 labeled peptide 1 mg/mL; virgin (FIG. 9a) and bleached (FIG. 9b) hair
Experimental: To separate solutions of 500 μL of DI water was added 1 mg of one of the peptides corresponding to SEQ ID NOs. 1 and 2-17. Then, a solution of 84 mg of sodium bicarbonate in 1 mL of DI water was prepared, and 12 μL of this solution was added to each peptide solution. Immediately prior to conjugation, 5 mg of Alexa Fluor 647 NHS ester (Thermo Fisher Scientific) dye molecule was dissolved in 500 μL of DMSO, and 15 μL of this solution was added to each peptide solution. After the dye was added, the solution was incubated at 4° C. in the dark for 16 hours. Removal of unbound dye molecules was carried out using a PD MiniTrap G-10 column (Cytiva) using DI water as the elutant. Fractions containing dye-labeled peptide were pooled and diluted to final peptide concentrations of 1 mg/mL.
Hair samples were then treated according to Example 8, except that during treatment with peptide, hair was treated with a single dye-labeled peptide corresponding to SEQ ID NOs. 1 and 2-17. For each set of conditions, three separate straightening protocols were performed.
Fluorescence images were collected on a EVOS M7000 Imaging System (Thermo Fisher Scientific) using a Cy5 filter set. Images were collected using a 0.1 second exposure time at a light intensity of 0.0023. Following fluorescence measurements, hair samples were then washed with shampoo an additional 9 times, towel dried, and fluorescently imaged again.
Image files were processed as 16-bit grayscale images using ImageJ software. […] The average and standard deviation of fluorescence intensity in the remaining regions (corresponding to hair strands containing fluorescently labeled peptides) was then directly calculated.

[2] = Hair straightening, treatment with heat only (Example 1); details: 1 mg/mL peptide; after 10 shampoo wash/dry cycles
Experimental: Tresses of curly Brazilian hair were cut into ½ inch wide samples. The tresses were then washed with shampoo and allowed to air dry. The hair was straightened using a flat iron at 460° F. Once the hair was visibly straight, the hair was wrapped tightly in aluminum foil. A flat iron was applied to a section of the wrapped hair by holding the flat iron to the section for 10 seconds. This process was repeated until all sections of the hair were flat ironed.
Six individual solutions of each peptide corresponding to SEQ ID NO. 3 through SEQ ID NO 8 were dissolved in de-ionized (“DI”) water at a concentration of about 1 milligram per milliliter (“mg/mL”) and then applied to separate hair samples until the hair sample was saturated. The saturated hair was allowed to sit for 1 hour at 37° C. The hair was then blow dried under medium heat while gently pulling the hair into a straight shape. A flat iron was then applied to the hair at 400° F.
The straightened hair was washed with shampoo and allowed to air dry, and this washing/drying procedure was repeated a total of 10 times. […] There was little identifiable difference in efficacy among the six designed keratin binding peptides, although peptides corresponding to SEQ ID NO. 5 SEQ ID NO. 6, SEQ ID NO. 7 and SEQ ID NO. […] 3 and SEQ ID NO.4.

[3] = Hair straightening, treatment with lye and hydrogen peroxide (Example 2); details: 1 mg/mL peptide; after 10 shampoo wash/dry cycles
Experimental: (§1) Tresses of curly Brazilian hair were cut into ½ inch wide samples. The tresses were then washed with shampoo and allowed to air dry. The hair then soaked in a solution of sodium hydroxide pH 12 for 30 minutes at room temperature. After this time, the hair was rinsed with DI water. The hair was then blow dried under medium heat while gently pulling the hair into a straight shape. A flat iron was then applied to the hair at 400° F.
Six individual solutions of each designed keratin binding peptide corresponding to SEQ ID NO. 3 through SEQ ID NO. 8 were dissolved in DI water at a concentration of 1 mg/ml and then applied to individual hair samples until the hair sample was saturated, and the hair sample was allowed to sit for 30 minutes at room temperature. The hair sample was then blow dried under medium heat while gently pulling the hair into a straight shape. A flat iron was then applied to the hair at 400° F.
L'Oreal® Oreor Creme 40 volume developer was then applied to the hair samples until the hair sample was saturated, and then allowed to sit for 30 minutes at room temperature. The hair samples were then rinsed with DI water.
Each straightened hair sample was washed with shampoo and allowed to air dry, and this washing/drying procedure was repeated a total of 10 times. […] There was little identifiable difference in efficacy among the six peptides, although peptides corresponding to SEQ ID NO. 5, SEQ ID NO. 6, SEQ ID NO. 7 and SEQ ID NO. […] 3 and SEQ ID NO.4.

[4] = Hair straightening, treatment with glutathione reductase and hydrogen peroxide (Example 4); details: 1 mg/mL peptide, 30 minutes; glutathione reductase/glutathione/NADP relaxation, 40 volume developer fixation; after 10 shampoo wash/dry cycles; only slight waves remained
Experimental: Tresses of curly Brazilian hair were cut into ½ inch wide samples. The tresses were then washed with shampoo and allowed to air dry. The hair then soaked in a solution of glutathione reductase (0.01 mg/mL), glutathione (100 mg/mL), and nicotinamide adenine dinucleotide phosphate (0.083 mg/mL) in 50 mM sodium phosphate buffer pH 8 for 30 minutes at room temperature. After this time, the hair was rinsed with DI water. The hair was then blow dried under medium heat while gently pulling the hair into a straight shape. A flat iron was then applied to the hair at 400° F.
A solution of a peptide corresponding to SEQ ID NO.8 in DI water at a concentration of 1 mg/mL was then applied to har until the hair was saturated, and the hair was allowed to sit for 30 minutes at room temperature. The hair was then blow dried under medium heat while gently pulling the hair into a straight shape. A flat iron was then applied to the hair at 400° F.
L'Oreal® Oreor Creme 40 volume developer was then applied to the hair until the hair was saturated, and the hair was allowed to sit for 30 minutes at room temperature. The hair was then rinsed with DI water.
(§2) The straightened hair was washed with shampoo and allowed to air dry, and this washing/drying procedure was repeated a total of 10 times.

[5] = Hair straightening, treatment with glutathione and glucose oxidase (Example 5); details: 1 mg/mL peptide, 30 minutes; glutathione pH 9 relaxation, glucose oxidase/glucose fixation; after 10 shampoo wash/dry cycles; only slight waves remained
Experimental: Tresses of curly Brazilian hair were cut into ½ inch wide samples. The tresses were then washed with shampoo and allowed to air dry. The hair then soaked in a solution of glutathione (100 mg/mL) in sodium hydroxide pH 9 for 30 minutes at room temperature. After this time, the hair was rinsed with DI water. The hair was then blow dried under medium heat while gently pulling the hair into a straight shape. A flat iron was then applied to the hair at 400° F.
A solution of the peptide corresponding to SEQ ID NO.8 in DI water at a concentration of 1 mg/mL was then applied to hair until the hair was saturated, and the hair was allowed to sit for 30 minutes at room temperature. The hair was then blow dried under medium heat while gently pulling the hair into a straight shape. A flat iron was then applied to the hair at 400° F.
(§3) A solution of glucose oxidase (2 mg/mL) and glucose (18 mg/mL) in 50 mM sodium phosphate buffer pH 5.8 was then applied to the hair until the hair was saturated, and the hair was allowed to sit for 30 minutes at room temperature. The hair was then rinsed with DI water.
as §2

[6] = Hair straightening, treatment with ammonium thioglycolate and hydrogen peroxide (Example 6); details: 1 mg/mL peptide, 30 minutes; ammonium thioglycolate 10% v/v pH 10, hydrogen peroxide 2% v/v; after 30 shampoo wash/dry cycles; treated samples with and without peptide
Experimental: Tresses of curly Brazilian hair were cut into ½ inch wide samples. The tresses were then washed with shampoo and allowed to air dry. The hair then soaked in a solution of ammonium thioglycolate (10% v/v) in sodium hydroxide pH 10 for 30 minutes at room temperature. After this time, the hair was rinsed with DI water. The hair was then blow dried under medium heat while gently pulling the hair into a straight shape. A flat iron was then applied to the hair at 400° F.
In some samples, a solution of the peptide corresponding to SEQ ID NO.8 in DI water at a concentration of 1 mg/mL was then applied to hair until the hair was saturated, and the hair was allowed to sit for 30 minutes at room temperature. In these samples, the hair was then blow dried under medium heat while gently pulling the hair into a straight shape. A flat iron was then applied to the hair at 400° F.
For all hair samples, a solution of hydrogen peroxide (2% v/v) was then applied to the hair until the hair was saturated, and the hair was allowed to sit for 30 minutes at room temperature. The hair was then rinsed with DI water.
The straightened hair was washed with shampoo and allowed to air dry, and this washing/drying procedure was repeated a total of 30 times.

[7] = Hair straightening, treatment with lye and glucose oxidase (Example 3); details: 1 mg/mL peptide, 30 minutes; NaOH pH 12, glucose oxidase/glucose fixation; after 10 shampoo wash/dry cycles; only slight waves remained
Experimental: as §1
A solution of the peptide corresponding to SEQ ID. NO. 8 in DI water at a concentration of 1 mg/mL was then applied to hair sample until the hair sample was saturated, and the hair was allowed to sit for 30 minutes at room temperature. The hair was then blow dried under medium heat while gently pulling the hair into a straight shape. A flat iron was then applied to the hair at 400° F.
as §3, §2

For “SEQ ID NO. 11: Q13C substitution relative to SEQ ID NO. 1 plus 2 additional cysteine substitutions (QGQVQHLQCAFSCYKKCELFPK)”, the “change in fluorescence intensity between 1 and 10 shampoos (retention of peptide in hair)” value (shortened to “change”) [1] was “no statistically significant decrease”.
With “SEQ ID NO. 5: designed keratin binding peptide with cysteine substitutions relative to SEQ ID NO: 1 (QGQCCHLQCCFSQYKKCELFPKC)” the “straightening efficiency compared among the six peptides (vs SEQ ID NO. 3 and SEQ ID NO. 4)” value [2] was “slightly higher straightening efficiency” and the “straightening efficiency compared among the six peptides (vs SEQ ID NO. 3 and SEQ ID NO. 4)” value [3] was “slightly higher straightening efficiency”.
In the case of “SEQ ID NO. 16: differs from SEQ ID NO. 8 in lacking the Q13C substitution (CGQVCHLQCAFSQYKKCELFPKC)”, the “change” value [1] is reported as “significant decrease”.
In the case of “SEQ ID NO. 14: differs from SEQ ID NO. 6 in lacking the Q13C substitution (CGQCCHLQCCFCQYKKCELFPKC)”, the “change” value [1] is reported as “significant decrease”.
For “SEQ ID NO. 15: differs from SEQ ID NO. 7 in lacking Q13C; 10 cysteine substitutions, unique Q3C and/or Q8C (CGCCCHLCCCFCQYKKCELFPKC)”, the “change” value [1] was “strong retention”.
For “SEQ ID NO. 7: cysteine-substituted peptide with Q13C; SEQ ID NO. 15 is the same without Q13C (CGCCCHLCCCFCCYKKCELFPKC) [cysteine-substituted peptide with Q13C; 15 is the same without Q13C]”, the “change” value [1] was “no statistically significant decrease”, the “straightening efficiency compared among the six peptides (vs SEQ ID NO. 3 and SEQ ID NO. 4)” value [2] was “slightly higher straightening efficiency” and the “straightening efficiency compared among the six peptides (vs SEQ ID NO. 3 and SEQ ID NO. 4)” value [3] was “slightly higher straightening efficiency”.
In the case of “SEQ ID NO. 8: cysteine-substituted peptide with Q13C; SEQ ID NO. 16 is the same without Q13C (CGQVCHLQCAFSCYKKCELFPKC) [cysteine-substituted peptide with Q13C; 16 is the same without Q13C]”, the “change” value [1] is reported as “no statistically significant decrease”, the “hair straightening compared to untreated samples” value [4] is reported as “significantly straightened” and the “straightening efficiency compared among the six peptides (vs SEQ ID NO. 3 and SEQ ID NO. 4)” value [2] is reported as “slightly higher straightening efficiency”. For the same substance, the “hair straightening compared to untreated samples” value [5] was “significantly straightened”, the “hair straightening compared to an untreated sample” value [6] was “significantly straightened” and the “straightening efficiency compared among the six peptides (vs SEQ ID NO. 3 and SEQ ID NO. 4)” value [3] was “slightly higher straightening efficiency”. The “hair straightening compared to untreated samples” value [7] was “significantly straightened”.
In the case of “SEQ ID NO. 6: cysteine-substituted peptide with Q13C; SEQ ID NO. 14 is the same without Q13C (CGQCCHLQCCFCCYKKCELFPKC) [cysteine-substituted peptide with Q13C; 14 is the same without Q13C]”, the “change” value [1] is reported as “no statistically significant decrease”, the “straightening efficiency compared among the six peptides (vs SEQ ID NO. 3 and SEQ ID NO. 4)” value [2] is reported as “slightly higher straightening efficiency” and the “straightening efficiency compared among the six peptides (vs SEQ ID NO. 3 and SEQ ID NO. 4)” value [3] is reported as “slightly higher straightening efficiency”.
With “SEQ ID NO. 4: Q13C substitution relative to SEQ ID NO. 1 plus 3 additional cysteine substitutions (QGQVCHLQCAFSCYKKCELFPK)” the “change” value [1] was “no statistically significant decrease”.
